Assay results taken from US5580956A, “Phospholipase C-inhibiting peptides” (priority 1992, dated 1996).
In brackets after ≈: the same amount, converted by molar mass. Peptide text beside a SMILES is read from it. * marks the point of attachment. Butanoyl(2-Et) = CCC(CC)C(=O)*; Hexanoyl = CCCCCC(=O)*

What was measured:
PLC-γ1 = target: T1, PLC-γ1 (Bos taurus, UniProt P08487); experiment: PLC-inhibiting activity (release of [3H]inositol phosphate from [3H]PIP2); assay type: biochemical, bovine; details: PI-PLC-γ1, 37° C., 10 minutes, read-out: Inhibition rate (%)
T1 construct: A sample (PLC-γ1) was prepared from bovine thymus according to the method of Y. Homma et al; from tissue; host or cells: bovine thymus
T1 sequence (P08487 1-1291): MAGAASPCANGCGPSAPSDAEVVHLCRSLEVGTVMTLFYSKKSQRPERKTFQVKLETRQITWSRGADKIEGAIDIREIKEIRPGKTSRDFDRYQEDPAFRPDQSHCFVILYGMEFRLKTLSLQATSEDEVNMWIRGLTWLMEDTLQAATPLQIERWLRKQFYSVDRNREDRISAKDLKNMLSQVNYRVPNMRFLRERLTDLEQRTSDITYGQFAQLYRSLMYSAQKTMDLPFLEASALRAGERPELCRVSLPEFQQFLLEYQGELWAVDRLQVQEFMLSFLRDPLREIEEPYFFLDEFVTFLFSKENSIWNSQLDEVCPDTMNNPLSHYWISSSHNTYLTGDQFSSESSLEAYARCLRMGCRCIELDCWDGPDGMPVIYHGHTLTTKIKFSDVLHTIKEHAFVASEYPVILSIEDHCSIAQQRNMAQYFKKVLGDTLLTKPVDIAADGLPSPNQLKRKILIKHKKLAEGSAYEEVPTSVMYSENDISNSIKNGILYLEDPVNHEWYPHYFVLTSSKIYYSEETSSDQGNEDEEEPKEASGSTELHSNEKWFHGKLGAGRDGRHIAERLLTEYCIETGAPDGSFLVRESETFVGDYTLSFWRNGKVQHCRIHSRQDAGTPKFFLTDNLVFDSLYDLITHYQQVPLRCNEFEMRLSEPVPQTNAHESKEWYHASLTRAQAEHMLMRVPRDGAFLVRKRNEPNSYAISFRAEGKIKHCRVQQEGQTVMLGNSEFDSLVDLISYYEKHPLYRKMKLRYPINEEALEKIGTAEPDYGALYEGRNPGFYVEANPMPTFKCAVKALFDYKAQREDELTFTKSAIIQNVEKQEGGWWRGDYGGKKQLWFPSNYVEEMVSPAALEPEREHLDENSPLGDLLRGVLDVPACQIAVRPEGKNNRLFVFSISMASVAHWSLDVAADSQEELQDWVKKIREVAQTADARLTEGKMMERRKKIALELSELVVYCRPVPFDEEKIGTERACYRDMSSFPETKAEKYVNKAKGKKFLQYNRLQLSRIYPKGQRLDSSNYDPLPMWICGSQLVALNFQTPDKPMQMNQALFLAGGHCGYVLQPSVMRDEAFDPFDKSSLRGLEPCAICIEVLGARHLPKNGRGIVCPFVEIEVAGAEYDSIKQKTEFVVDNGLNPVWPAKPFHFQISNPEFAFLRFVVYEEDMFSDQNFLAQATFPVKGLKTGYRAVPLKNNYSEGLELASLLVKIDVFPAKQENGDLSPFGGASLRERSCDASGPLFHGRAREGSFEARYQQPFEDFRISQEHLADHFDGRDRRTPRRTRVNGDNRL
Method: A sample (PLC-γ1) was prepared from bovine thymus according to the method of Y. Homma et al. described in Biochemical Journal [(Biochem. J.), 269, 13 (1990)]. A solution having the composition listed in Table 1 below was prepared in advance on the ice and the reaction was begun with heating to 37° C. After incubation for 10 minutes, 2 ml of a solution mixture of chloroform/methanol (2:[…]) was added thereto to stop the reaction. The resulting inositol phosphate was extracted with 0.5 ml of 1N hydrochloric acid. Two-phase distribution was carried out by centrifugation (2000×g, 3 minutes), and the amount of ^3 H contained in 0.7 ml of the supernatant was measured with scintillation counter. […] The obtained value of specific radioactivity was defined as "A", the value of specific radioactivity obtained when an equivalent amount of water was added instead of the aqueous solution of the test peptide was defined as "B", the value of specific radioactivity obtained when an equivalent amount of water was added instead of the sample and the aqueous solution of the test peptide was defined as "C", and the inhibition rate (X) was determined according to the following equation. X(%)=[…]

[1] = test system: Pseudomonas aeruginosa Bin H No. 1; assay type: cell-based; details: Bin H No. 1, pH 7
Method: (§1) The antibacterial activity was determined by the agar dilution method using a culture medium (pH 7.0) containing 3 g/l bactotrypton (product of Difco Co.), 1 g/l meat extract, 1 g/l glucose and 16 g/l agar.

[2] = test system: Bacillus subtilis No. 10107; assay type: cell-based; details: No. 10107, pH 7
Method: as §1

[3] = test system: Proteus vulgaris ATCC6897; assay type: cell-based; details: ATCC6897, pH 7
Method: as §1

[4] = test system: Enterococcus faecium ATCC10541; assay type: cell-based; details: ATCC10541, pH 7
Method: as §1

Shigella sonnei ATCC9290 = experiment: Antibacterial activity, agar dilution method; assay type: cell-based; details: medium pH 7.0
Method: as §1

KMS-4 cells = experiment: Cell proliferation-inhibiting activity (BrdU incorporation, Amersham Cell Proliferation Detection Kit); assay type: cell-based; details: Concentration 31 μM, 17 hours with peptide, BrdU-stained cells
Method: The following procedure was carried out with an Amersham Cell Proliferation Detection Kit. First, cells [KMS-4; M. Nanba et al., International Journal of Cancer, 32, 697 (1983)] were suspended in a DMEM culture medium (product of Nissui Seiyaku) containing 10% fetal calf serum to a concentration of 1-2×10^4 cells/ml, and 1 ml of the above-mentioned cell suspension was put into each well of a 24-well plate (product of Corning Co.). The cells were cultured for 2 days in a CO2 incubator (37° C., 5% CO2). Next, the culture medium was exchanged with a DMEM medium containing 10% fetal calf serum, and then the test peptide was added thereto and culturing was carried out for 17 hours. The culture medium was again exchanged with a serum-free DMEM medium, 0.5 ml of a solution of the reagents labelled 5-bromo-2'-deoxyuridine (BrdU) and 5-fluoro-2'-deoxyuridine (FdU) [10:1] diluted 1000-fold with the same medium was added to each well, and cultured for 2 hours. The culture medium was removed, and the cells were immobilized with an acetic acid/ethanol solution. The immobilized cells were stained according to the method for the Amersham Cell Proliferation Kit, and then further stained with a 1% Giemsa solution (product of Merck Co.). The number of cells incorporating BrdU and the total cell count within 1 field of vision of the microscope (approximately 200 cells) were determined, and the proportion (%) of stained cells per field of vision was calculated. Furthermore, the same procedure was repeated 10 times, and the average value thereof was defined as the cell proliferation activity (%). The cell proliferation-inhibiting activity was calculated in the following manner. The proliferation activity without addition of peptide was defined as "A", the proliferation activity with addition of the test peptide was defined as "B", and the cell proliferation inhibition rate (X) was determined according to the following equation. X (%)=[…]

[5] = test system: Salmonella typhi ATCC9902; assay type: cell-based; details: agar dilution, medium pH 7.0
Method: as §1

Molecule: Ac-YRKMRLRY-NH2 [Compound (I-10), CH3 CO-Tyr-Arg-Lys-Met -Arg-Leu-Arg-Tyr-NH2]
- inhibition at 160 µM (stock) (PLC-γ1; Concentration 160 μM (aqueous solution of test peptide)): 26%
- MIC [1]: 83 µg/mL
- MIC [2]: 83 µg/mL
- MIC [3]: 83 µg/mL
- MIC [4]: 83 µg/mL

Molecule: CCCCCC(=O)N[C@@H](CC(C)C)C(=O)N[C@@H](Cc1ccc(O)cc1)C(=O)N[C@@H](CCCNC(=N)N)C(=O)N[C@@H](CCCCN)C(=O)N[C@@H](CCSC)C(=O)N[C@@H](CCCNC(=N)N)C(=O)N[C@@H](CC(C)C)C(=O)N[C@@H](CCCNC(=N)N)C(=O)N[C@@H](Cc1ccc(O)cc1)C(=O)N1CCC[C@H]1C(=O)N[C@H](C(N)=O)C(C)C [(I-27), CH3 (CH2)4 CO-Leu-Tyr-Arg-Lys-Met-Arg-Leu-Arg-Tyr-Pro-Val-NH2] (Hexanoyl-LYRKMRLRYPV-NH2)
- MIC (Shigella sonnei ATCC9290): 83 µg/mL (≈ 52.1 µM)
- inhibition at 130 µM (stock) (PLC-γ1; Concentration 130 μM (aqueous solution of test peptide)): 35%
- Cell proliferation inhibition rate (%) (KMS-4 cells): 28%
- MIC [5]: 83 µg/mL (≈ 52.1 µM)
- MIC [1]: 42 µg/mL (≈ 26.4 µM)
- MIC [2]: 83 µg/mL (≈ 52.1 µM)
- MIC [3]: 83 µg/mL (≈ 52.1 µM)
- MIC [4]: 83 µg/mL (≈ 52.1 µM)

Molecule: CCC(CC)C(=O)N[C@@H](CC(C)C)C(=O)N[C@@H](Cc1ccc(O)cc1)C(=O)N[C@@H](CCCNC(=N)N)C(=O)N[C@@H](CCCCN)C(=O)N[C@@H](CCSC)C(=O)N[C@@H](CCCNC(=N)N)C(=O)N[C@@H](CC(C)C)C(=O)N[C@@H](CCCNC(=N)N)C(=O)N[C@@H](Cc1ccc(O)cc1)C(=O)N1CCC[C@H]1C(=O)N[C@H](C(N)=O)C(C)C [(I-20), (CH3 CH2)2 CHCO-Leu-Tyr-Arg-Lys-Met-Arg-Leu-Arg-Tyr-Pro-Val-NH2] ({Butanoyl(2-Et)}-LYRKMRLRYPV-NH2)
- inhibition at 630 µM (stock) (PLC-γ1; Concentration 630 μM (aqueous solution of test peptide)): 74%
- Cell proliferation inhibition rate (%) (KMS-4 cells): 44%
- MIC [1]: 83 µg/mL (≈ 52.1 µM)
- MIC [3]: 83 µg/mL (≈ 52.1 µM)
